This is an account of results in PubChem BioAssay AID652171 (Broad Institute, 2013).

The test system of this test is INS-1E cytokine-induced apoptosis, ATP luminescence, 48 h. Briefly: protection from cytokine-induced beta-cell death, late-stage follow-up, mechanism study for beta-cell protection project, INS-1E, ATP luminescence, dry powder (AID 652171).

Structures are written as SMILES.

With `C[C@@H]1CN([C@@H](C)COC(=O)NCCOCCOCCN)C(=O)c2cccc(NC(=O)Nc3cccc4ccccc34)c2O[C@H]1CN(C)S(=O)(=O)c1ccc2c(c1)OCCO2`, the inhibition of cytokine-induced cell death (at 20 µM (top of the series)) is 102%. As for `C[C@@H]1CN([C@@H](C)CO)C(=O)c2cccc(NC(=O)Nc3cccc4ccccc34)c2O[C@H]1CN(C)S(=O)(=O)c1ccc2c(c1)OCCO2`, under “at 10 µM (top of the series)”, the inhibition of cytokine-induced cell death is 90%.
